In patent US8354451B2, “Treatment of microbial infections with compounds that inhibit 4-hydroxyphenylpyruvate dioxygenase” (The UWM Research Foundation, Inc., priority 2009, dated 2013):
Where two headings read alike, the source gives them in different places.

Key:
B. cenocepacia C5424 = assay type: cell-based, Burkholderia cenocepacia; conditions: 24 h culture, OD597
Pseudomonas aeruginosa = assay: Murine model of systemic infection, intraperitoneal; conditions: 1 mg/Kg NTBC daily

`O=C1CCCC(=O)C1C(=O)c1ccc(C(F)(F)F)cc1[N+](=O)[O-]` [NTBC, 2-(2-nitro-4-trifluoromethylbenzoyl)-1,3-cyclohexanedione] was tested, and the “pigment production relative to untreated C5424” value (B. cenocepacia C5424; 10 μM NTBC) was 31.95±3.96%, the “pigment production relative to untreated C5424” value (B. cenocepacia C5424; 100 μM NTBC) was 26.89±0.59% and the “time to return to normal growth (weight) after administration” value (Pseudomonas aeruginosa) was ≤ 24 h. For the same molecule, the “survival rate versus infected untreated mice” value (Pseudomonas aeruginosa; 3.2×10^8 CFU P. aeruginosa) was “three-fold higher survival rate”.
